Data set [1] can be described thus: Plasma stability of the β-fluoro amines. To be noted: in solution with Human Plasma; aliquots incubated for different time periods. Format: in vitro ADME. The method, then:
675 μl EtOH were added to the reactive-vial and then 5 aliquots of 70 μl of the Plasma solution were incubated for different time periods.

Data set [2] is described as follows: Hydrolytic stability of the β-fluoro amines. Format: physicochemical. To be noted: under neutral and basic conditions (FIG. 2). The source says: The β-fluoro amino acid derivative 11ab-18F is quite stable under neutral and basic conditions (FIG. 2).

Structures are written as SMILES.

Regarding `COc1ccc(S(=O)(=O)NC(C[18F])C(=O)NCc2ccccc2)cc1OC` (stereo not drawn) [11ac-18F, 3-[^18F]Fluoro-N-benzyl-2-(3,4-dimethoxyphenylsulphon-amido)-propanamide], in data set [1], the Plasma stability result was “stable”.

With `CC(C)c1cc(C(C)C)c(S(=O)(=O)NC(C[18F])C(=O)NCc2ccccc2)c(C(C)C)c1` (stereo not drawn) [11ab-18F, 3-[^18F]Fluoro-N-benzyl-2-(2,4,6-triisopropylphenylsulphon-amido)-propanamide], the Hydrolytic stability result in data set [2] is given as “quite stable”.

As for `CC(C)c1cc(C(C)C)c(S(=O)(=O)NC2CN(C(=O)CCC(=O)NCc3ccccc3)CC2[18F])c(C(C)C)c1` (stereo not drawn) [35aa-18F, N-Benzyl-4-[3-[^18F]fluoro-4-(2,4,6-triisopropyl-benzene-sulfonylamino)-pyrrolidin-1-yl]-4-oxo-butyramide], the Plasma stability result in data set [1] is given as “stable”.

(Values after patent US20090022664A1, “Radiolabelling via fluorination of aziridines” (priority 2007, published 2009).)
